# Measured values published in PubChem BioAssay (NCI).
#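 These data come from cells grown in 96-well plates and exposed to compound for 48 hours at five concentrations. GI50: concentration for 50% inhibition of growth. TGI: total growth inhibition.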
# Tests used:
# Assay in all cases: NCI anticancer screen, dose series, 48 h
# [1] = tested on: 786-0 renal
# [2] = tested on: A498 renal
# [3] = tested on: A549 NSCLC
# [4] = tested on: ACHN renal
# [5] = tested on: BT-549 breast
# [6] = tested on: CAKI-1 renal
# [7] = tested on: CCRF-CEM leukemia
# [8] = tested on: COLO 205 colon
# [9] = tested on: DU-145 prostate
# [10] = tested on: EKVX NSCLC
# [11] = tested on: HCC-2998 colon
# [12] = tested on: HCT-116 colon
# [13] = tested on: HCT-15 colon
# [14] = tested on: HL-60(TB) leukemia
# [15] = tested on: HOP-62 NSCLC
# [16] = tested on: HOP-92 NSCLC
# [17] = tested on: HS 578T breast
# [18] = tested on: HT29 colon
# [19] = tested on: IGROV1 ovarian
# [20] = tested on: K-562 leukemia
# [21] = tested on: KM12 colon
# [22] = tested on: LOX IMVI melanoma
# [23] = tested on: M14 melanoma
# [24] = tested on: MALME-3M melanoma
# [25] = tested on: MCF7 breast
# [26] = tested on: MDA-MB-231 breast
# [27] = tested on: MDA-MB-435
# [28] = tested on: MDA-MB-468 breast
# [29] = tested on: MOLT-4 leukemia
# [30] = tested on: NCI-H226 lung
# [31] = tested on: NCI-H23 lung
# [32] = tested on: NCI-H460 lung
# [33] = tested on: NCI-H522 lung
# [34] = tested on: NCI/ADR-RES ovarian
# [35] = tested on: OVCAR-3 ovarian
# [36] = tested on: OVCAR-4 ovarian
# [37] = tested on: OVCAR-5 ovarian
# [38] = tested on: OVCAR-8 ovarian
# [39] = tested on: PC-3 prostate
# [40] = tested on: RPMI-8226 leukemia
# [41] = tested on: RXF 393 renal
# [42] = tested on: SF-268 CNS
# [43] = tested on: SF-295 CNS
# [44] = tested on: SF-539 CNS
# [45] = tested on: SK-MEL-2 melanoma
# [46] = tested on: SK-MEL-28 melanoma
# [47] = tested on: SK-MEL-5 melanoma
# [48] = tested on: SK-OV-3 ovarian
# [49] = tested on: SN12C renal
# [50] = tested on: SNB-19 CNS
# [51] = tested on: SNB-75 CNS
# [52] = tested on: SR leukemia
# [53] = tested on: SW-620 colon
# [54] = tested on: T-47D breast
# [55] = tested on: TK-10 renal
# [56] = tested on: U251 CNS
# [57] = tested on: UACC-257 melanoma
# [58] = tested on: UACC-62 melanoma
# [59] = tested on: UO-31 renal
compound,measurement,setting,value
O=C(N/N=C/c1ccc(B(O)O)s1)c1[nH]c2ccc(Br)cc2c1-c1ccccc1,GI50,[1],411 nM
same,TGI,[1],8280 nM
same,GI50,[2],8500 nM
same,TGI,[2],21600 nM
same,GI50,[3],423 nM
same,TGI,[3],13400 nM
same,GI50,[4],512 nM
same,TGI,[4],14000 nM
same,GI50,[5],348 nM
same,TGI,[5],1020 nM
same,GI50,[6],444 nM
same,TGI,[6],13600 nM
same,GI50,[7],366 nM
same,TGI,[7],12600 nM
same,GI50,[8],231 nM
same,TGI,[8],515 nM
same,GI50,[9],367 nM
same,TGI,[9],11600 nM
same,GI50,[10],425 nM
same,TGI,[10],11200 nM
same,GI50,[11],364 nM
same,TGI,[11],5810 nM
same,GI50,[12],331 nM
same,TGI,[12],4340 nM
same,GI50,[13],340 nM
same,TGI,[13],8830 nM
same,GI50,[14],230 nM
same,TGI,[14],659 nM
same,GI50,[15],557 nM
same,TGI,[15],11800 nM
same,GI50,[16],974 nM
same,TGI,[16],6340 nM
same,GI50,[17],296 nM
same,TGI,[17],3440 nM
same,GI50,[18],290 nM
same,TGI,[18],992 nM
same,GI50,[19],403 nM
same,TGI,[19],13100 nM
same,GI50,[20],354 nM
same,TGI,[20],16300 nM
same,GI50,[21],342 nM
same,TGI,[21],4900 nM
same,GI50,[22],350 nM
same,TGI,[22],6220 nM
same,GI50,[23],371 nM
same,TGI,[23],12700 nM
same,GI50,[24],512 nM
same,TGI,[24],21100 nM
same,GI50,[25],333 nM
same,TGI,[25],10500 nM
same,GI50,[26],339 nM
same,TGI,[26],11300 nM
same,GI50,[27],250 nM
same,TGI,[27],647 nM
same,GI50,[28],235 nM
same,TGI,[28],572 nM
same,GI50,[29],459 nM
same,TGI,[29],14400 nM
same,GI50,[30],511 nM
same,TGI,[30],5430 nM
same,GI50,[31],378 nM
same,TGI,[31],13200 nM
same,GI50,[32],363 nM
same,TGI,[32],4100 nM
same,GI50,[33],208 nM
same,TGI,[33],549 nM
same,GI50,[34],238 nM
same,TGI,[34],587 nM
same,GI50,[35],302 nM
same,TGI,[35],2960 nM
same,GI50,[36],3560 nM
same,TGI,[36],24100 nM
same,GI50,[37],390 nM
same,TGI,[37],13900 nM
same,GI50,[38],272 nM
same,TGI,[38],816 nM
same,GI50,[39],476 nM
same,TGI,[39],16500 nM
same,GI50,[40],521 nM
same,TGI,[40],> 52300 nM
same,GI50,[41],343 nM
same,TGI,[41],13600 nM
same,GI50,[42],515 nM
same,TGI,[42],10200 nM
same,GI50,[43],299 nM
same,TGI,[43],5380 nM
same,GI50,[44],227 nM
same,TGI,[44],551 nM
same,GI50,[45],432 nM
same,TGI,[45],14000 nM
same,GI50,[46],856 nM
same,TGI,[46],16700 nM
same,GI50,[47],215 nM
same,TGI,[47],497 nM
same,GI50,[48],691 nM
same,TGI,[48],15000 nM
same,GI50,[49],374 nM
same,TGI,[49],8110 nM
same,GI50,[50],387 nM
same,TGI,[50],13500 nM
same,GI50,[51],316 nM
same,TGI,[51],5630 nM
same,GI50,[52],364 nM
same,TGI,[52],14300 nM
same,GI50,[53],395 nM
same,TGI,[53],14800 nM
same,GI50,[54],3740 nM
same,TGI,[54],22700 nM
same,GI50,[55],7960 nM
same,TGI,[55],22900 nM
same,GI50,[56],311 nM
same,TGI,[56],4600 nM
same,GI50,[57],1250 nM
same,TGI,[57],18200 nM
same,GI50,[58],395 nM
same,TGI,[58],5920 nM
same,GI50,[59],1050 nM
same,TGI,[59],14100 nM
